Here are results for four compounds from patent US20240360087A1, “THERMODYNAMICALLY STABLE FORM OF SCO-101” (SCANDION ONCOLOGY A/S, priority 2021, published 2024).

What all share (format): physicochemical
Series [1] can be described thus: Dynamic vapour sorption (DVS), hygroscopicity. The following applies: for mass gain at 90% relative humidity (DVS): 25° C.; for hygroscopicity (DVS), in words: RH up to 90%. The method, then:
Approximately 10-20 mg of sample was placed into a mesh vapour sorption balance pan and loaded into a DVS Intrinsic or Advantage dynamic vapour sorption balance by Surface Measurement Systems. The sample was subjected to a ramping profile from 40-90% relative humidity (RH) at 10% increments, maintaining the sample at each step until a stable weight had been achieved (dm/dt 0.004%, minimum step length 30 minutes, maximum step length 120 minutes) at 25° C. After completion of the sorption cycle, the sample was dried using the same procedure to 0% RH and then a second sorption cycle back to 40% RH. Two cycles were performed. The weight change during the sorption/desorption cycles were plotted, allowing for the hygroscopic nature of the sample to be determined. XRPD analysis was then carried out on any solid retained.

Series [2] can be described thus: Competitive slurry experiments (thermodynamic stability of solid forms). The following applies: for thermodynamic stability of the solid form, in words: conclusion from competitive slurry experiments and thermal data; for Form/Pattern after slurrying for 3 days: 1:1 mixture with Form I, 40° C., XRPD. The method, then: The slurries were stirred at 40° C. for 3 days. After 3 days, the solids were filtered centrifugally and analysed by XRPD.

The nature of series [3]: Storage at 40° C./75% RH in an open vial, XRPD. The following applies: 3 days. Here is the method: 200 mg SCO-101, Form III (Pattern 24) was placed at 40° C./75% RH in an open vial covered with tissue for 3 days.
Series [4] in a line: Variable temperature XRPD (VT-XRPD) of solid form conversion. The following applies: mixture of Form III and Form IV at 150° C.
The mark [5] stands for this setting: saturated acetone:heptane (50:50% v/v).
[6] abbreviates: saturated acetone:water (50:50% v/v).

“Also recorded” adds a separate entry of the source.

Regarding `O=C(Nc1cc(C(F)(F)F)cc(C(F)(F)F)c1)Nc1ccc(Br)cc1-c1nnn[nH]1` [Form I, N-[4-Bromo-2-(1H-1,2,3,4-tetrazol-5-yl)phenyl]-N′-[3,5-bis(trifluoromethyl)phenyl]urea], the “mass gain at 90% relative humidity (DVS)” value in series [1] (90% RH) is recorded as “no increase in mass”. Also, the “hygroscopicity (DVS), in words” value in series [1] and in series [1] (listed as crystal form I) was “non-hygroscopic” throughout. For the same compound, the “thermodynamic stability of the solid form, in words” value in series [2] was “thermodynamically most stable polymorph; also recorded: thermodynamically stable polymorph”.
For `O=C(Nc1cc(C(F)(F)F)cc(C(F)(F)F)c1)Nc1ccc(Br)cc1-c1nnn[nH]1` [Form II, N-[4-Bromo-2-(1H-1,2,3,4-tetrazol-5-yl)phenyl]-N′-[3,5-bis(trifluoromethyl)phenyl]urea], in series [1] (90% RH), the “water absorbed at 90% RH (DVS)” value is recorded as “approx. 6 % (w/w)”. Moreover, the “mass gain at 90% relative humidity (DVS)” value in series [1] (90% RH) was “approx 6%”. Further, the “weight gain when increasing RH from 70% to 80% (DVS)” value in series [1] (RH 70% to 80%, corresponds to monohydrate) was 3%. In addition, the “hygroscopicity (DVS), in words” value in series [1] is “takes up water to form a hydrate; also recorded: hygroscopic”; in series [1] (listed as crystal form II), “hygroscopic”. Further, the “Form/Pattern after slurrying for 3 days” value in series [2] (setting [5]) and in series [2] (setting [6]) was “Form I” throughout. Besides, the “thermodynamic stability of the solid form, in words” value in series [2] was “metastable form”.
For `O=C(Nc1cc(C(F)(F)F)cc(C(F)(F)F)c1)Nc1ccc(Br)cc1-c1nnn[nH]1` [Form III, N-[4-Bromo-2-(1H-1,2,3,4-tetrazol-5-yl)phenyl]-N′-[3,5-bis(trifluoromethyl)phenyl]urea], the “solid form after storage (XRPD)” value in series [3] is listed as “Form IV, Pattern 29”. Also, the “temperature of complete transformation into Form IV (VT-XRPD)” value in series [4] is 155 °C.
In the case of `O=C(Nc1cc(C(F)(F)F)cc(C(F)(F)F)c1)Nc1ccc(Br)cc1-c1nnn[nH]1` [Pattern 5, N-[4-Bromo-2-(1H-1,2,3,4-tetrazol-5-yl)phenyl]-N′-[3,5-bis(trifluoromethyl)phenyl]urea], the “Form/Pattern after slurrying for 3 days” value in series [2] (setting [5]) and in series [2] (setting [6]) was “Form I” each time.
